Assay: xn = mol fraction of the nth substance listed
Conditions: 101 kPa, Liquid; for viscosity: Anton Paar Stabinger viscometer

COc1ccccc1 [anisole] + Cc1cccc(C)c1
Conditions	mass density [kg/m3]	speed of sound [m/s]	viscosity [mPa·s]
288.15 K, x1 = 0.1144	882.011	1369.2	0.696
288.15 K, x1 = 0.2566	899.519	1380.5	0.745
288.15 K, x1 = 0.3821	915.327	1390.9	0.799
288.15 K, x1 = 0.5034	930.924	1401	0.856
288.15 K, x1 = 0.6546	950.873	1414.1	0.933
288.15 K, x1 = 0.7535	964.193	1424	0.995
288.15 K, x1 = 0.8432	976.464	1432	1.049
288.15 K, x1 = 0.9133	986.213	1439.3	1.103
288.15 K, x1 = 0.9576	992.455	1445.2	1.149
288.15 K, x1 = 1	998.44	1449.1	1.188
293.15 K, x1 = 0.1144	877.742	1351	0.645
293.15 K, x1 = 0.2566	895.185	1362.2	0.688
293.15 K, x1 = 0.3821	910.905	1372.1	0.734
293.15 K, x1 = 0.5034	926.441	1381.4	0.783
293.15 K, x1 = 0.6546	946.321	1393.9	0.851
293.15 K, x1 = 0.7535	959.605	1402.8	0.908
293.15 K, x1 = 0.8432	971.843	1411.1	0.958
293.15 K, x1 = 0.9133	981.575	1418.4	1.008
293.15 K, x1 = 0.9576	987.755	1423.6	1.051
293.15 K, x1 = 1	993.651	1428.5	1.084
298.15 K, x1 = 0.1144	873.473	1328.5	0.607
298.15 K, x1 = 0.2566	890.874	1339.2	0.647
298.15 K, x1 = 0.3821	906.561	1349.8	0.687
298.15 K, x1 = 0.5034	922.056	1360.1	0.734
298.15 K, x1 = 0.6546	941.9	1373.5	0.798
298.15 K, x1 = 0.7535	955.192	1382.5	0.852
298.15 K, x1 = 0.8432	967.423	1391	0.899
298.15 K, x1 = 0.9133	977.136	1398.1	0.947
298.15 K, x1 = 0.9576	983.283	1403.1	0.988
298.15 K, x1 = 1	989.15	1408	1.017
303.15 K, x1 = 0.1144	869.172	1308	0.574
303.15 K, x1 = 0.2566	886.499	1318.7	0.604
303.15 K, x1 = 0.3821	902.126	1328.8	0.639
303.15 K, x1 = 0.5034	917.578	1339.1	0.677
303.15 K, x1 = 0.6546	937.368	1352.6	0.733
303.15 K, x1 = 0.7535	950.619	1362	0.782
303.15 K, x1 = 0.8432	962.844	1371	0.824
303.15 K, x1 = 0.9133	972.502	1378.3	0.868
303.15 K, x1 = 0.9576	978.641	1383.1	0.905
303.15 K, x1 = 1	984.372	1387.7	0.931

Cc1cc(C)cc(C)c1 [1,3,5-trimethylbenzene] + COc1ccccc1
Conditions	mass density [kg/m3]	speed of sound [m/s]	viscosity [mPa·s]
288.15 K, x2 = 0	869.169	1377.5	0.754
288.15 K, x2 = 0.074	876.661	1383.1	0.769
288.15 K, x2 = 0.181	887.986	1390.7	0.802
288.15 K, x2 = 0.334	905.232	1400.3	0.849
288.15 K, x2 = 0.4982	925.26	1408	0.893
288.15 K, x2 = 0.628	942.318	1420.3	0.965
288.15 K, x2 = 0.7512	959.611	1426.3	1.005
288.15 K, x2 = 0.814	968.893	1433.8	1.061
288.15 K, x2 = 0.875	978.238	1438.6	1.101
288.15 K, x2 = 0.94	988.554	1445.6	1.158
293.15 K, x2 = 0	865.072	1357	0.705
293.15 K, x2 = 0.074	872.553	1361.7	0.716
293.15 K, x2 = 0.181	883.818	1368.1	0.743
293.15 K, x2 = 0.334	900.968	1376.2	0.782
293.15 K, x2 = 0.4982	920.888	1383.3	0.819
293.15 K, x2 = 0.628	937.858	1395.1	0.883
293.15 K, x2 = 0.7512	955.065	1401.5	0.92
293.15 K, x2 = 0.814	964.301	1410	0.971
293.15 K, x2 = 0.875	973.59	1415.8	1.007
293.15 K, x2 = 0.94	983.844	1424.2	1.058
298.15 K, x2 = 0	861.062	1336.9	0.661
298.15 K, x2 = 0.074	868.529	1342.6	0.674
298.15 K, x2 = 0.181	879.758	1350.1	0.697
298.15 K, x2 = 0.334	896.835	1360	0.733
298.15 K, x2 = 0.4982	916.671	1370.5	0.767
298.15 K, x2 = 0.628	933.575	1379.4	0.827
298.15 K, x2 = 0.7512	950.712	1388.1	0.863
298.15 K, x2 = 0.814	959.91	1392.9	0.912
298.15 K, x2 = 0.875	969.162	1397.6	0.946
298.15 K, x2 = 0.94	979.363	1402.8	0.993
303.15 K, x2 = 0	856.95	1316.8	0.621
303.15 K, x2 = 0.074	864.41	1320.5	0.633
303.15 K, x2 = 0.181	875.58	1326.7	0.65
303.15 K, x2 = 0.334	892.57	1336.1	0.677
303.15 K, x2 = 0.4982	912.31	1347.1	0.706
303.15 K, x2 = 0.628	929.13	1356.2	0.758
303.15 K, x2 = 0.7512	946.19	1365.4	0.792
303.15 K, x2 = 0.814	955.34	1370.5	0.837
303.15 K, x2 = 0.875	964.55	1375.6	0.87
303.15 K, x2 = 0.94	974.7	1382.8	0.912

COc1ccccc1 [anisole] + Cc1ccccc1
Conditions	mass density [kg/m3]	speed of sound [m/s]	viscosity [mPa·s]
288.15 K, x1 = 0.1152	886.478	1360.7	0.676
288.15 K, x1 = 0.2132	899.203	1369.9	0.725
288.15 K, x1 = 0.3098	911.684	1379.1	0.77
288.15 K, x1 = 0.4182	925.577	1389.6	0.832
288.15 K, x1 = 0.5267	939.392	1400.4	0.891
288.15 K, x1 = 0.6209	951.306	1410	0.94
288.15 K, x1 = 0.7382	966.034	1421.9	1.014
288.15 K, x1 = 0.8645	981.766	1434.9	1.094
288.15 K, x1 = 0.927	989.474	1441.5	1.138
288.15 K, x1 = 1	998.441	1449.1	1.188
293.15 K, x1 = 0.1152	881.927	1339.1	0.628
293.15 K, x1 = 0.2132	894.629	1347.9	0.671
293.15 K, x1 = 0.3098	907.078	1357.9	0.71
293.15 K, x1 = 0.4182	920.94	1367.2	0.765
293.15 K, x1 = 0.5267	934.732	1377.6	0.818
293.15 K, x1 = 0.6209	946.626	1387.6	0.861
293.15 K, x1 = 0.7382	961.327	1398.7	0.927
293.15 K, x1 = 0.8645	977.029	1412.5	0.999
293.15 K, x1 = 0.927	984.734	1418.9	1.039
293.15 K, x1 = 1	993.653	1428.5	1.084
298.15 K, x1 = 0.1152	877.272	1316.5	0.594
298.15 K, x1 = 0.2132	889.988	1325.8	0.634
298.15 K, x1 = 0.3098	902.448	1335	0.67
298.15 K, x1 = 0.4182	–	1345.3	0.721
298.15 K, x1 = 0.5267	930.133	1356.5	0.769
298.15 K, x1 = 0.6209	942.044	1366.3	0.809
298.15 K, x1 = 0.7382	956.777	1378.8	0.871
298.15 K, x1 = 0.8645	972.508	1392.7	0.94
298.15 K, x1 = 0.927	980.221	1399.6	0.977
298.15 K, x1 = 1	989.15	1408	1.017
303.15 K, x1 = 0.1152	872.541	1295.1	0.557
303.15 K, x1 = 0.2132	885.247	1304.8	0.592
303.15 K, x1 = 0.3098	897.698	1314.4	0.623
303.15 K, x1 = 0.4182	911.571	1325.3	0.667
303.15 K, x1 = 0.5267	925.369	1336.5	0.709
303.15 K, x1 = 0.6209	937.281	1346.4	0.745
303.15 K, x1 = 0.7382	952.012	1358.8	0.802
303.15 K, x1 = 0.8645	967.753	1372.5	0.862
303.15 K, x1 = 0.927	975.465	1379.4	0.895
303.15 K, x1 = 1	984.374	1387.7	0.931
